Results on 2 compounds are retold here after patent US9598441B2, “Therapeutic compounds and methods” (Wayne State University, priority 2011, dated 2017).

In test [1] the target is T1, CARP-1 binding with APC-2 (Homo sapiens, UniProt Q8IX12).
T1 construct: made in house; host or cells: E. coli BL-21 (DE3)
T1 sequence (Q8IX12 951-980 limits assumed): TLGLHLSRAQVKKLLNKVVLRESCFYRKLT
The test is described as follows: Fluorescence polarization assay (FPA) for inhibitors of CARP-1-APC-2 binding. Conditions: fluorescein-tagged A-epitope peptide and Gst-APC-2 (685-754). As to the method: Although, several formats for FP are indicated in the published literature (Inglese, J., Johnson, R. L., Simeonov, A., Xia, M., Zheng, W., Austin, C. P., Auld, D. S. (2007) Nat. Chem. Biol. 3(8), 466-79), the assays using 96-well or higher density plates are often and routinely employed. Optimization of FP for HTS involves several steps including the determination of Kd values, optimization of the buffer conditions, incubation and measurement times, and determination of the DMSO tolerance of the assay. Our goal was to minimize variation and to aim for adequate signal:background without adversely effecting the sensitivity of the assay. The FP polarization values in milli-polarization (mp) were measured to determine changes in the mp (Amp=mp of bound peptide mp of free peptide), the Kd and Ki constants of the binding. A 30-mer CARP-1 peptide that contained APC-2-binding epitope (A-epitope peptide) was commercially synthesized (US Biologicals, MA), labeled with fluorescein at the N-terminus, and purified to >98% purity. Increasing concentrations of A-epitope peptide were incubated with the indicated quantities of the affinity-purified Gst-APC-2 (685-754) protein in assay buffer containing 0.01% triton-X100. Affinity-purified Gst-NEMO (221-317) was included as a negative control. The Δmp was measured by excitation at 485 nm and emission at 538 nm.
The kinetics of CARP-1 binding with APC-2 was determined, and whether this binding could be exploited to identify SMIs of CARP-1-APC-2 interaction was investigated. For this purpose, a FPA utilizing the affinity-purified Gst-APC-2 (685-754) protein and the fluorescein-tagged A-epitope peptide was developed as detailed in methods. […] The signal to background ratio of 6 underscored robustness of this assay. Since, the quality (precision) and suitability of the FPA for HTS is usually defined by the Z′ factor (25, 40), we utilized the positive and negative control mean signals (μc+ and μc−, respectively) and their standard deviations (σc+ and σc−) to calculate the Z′ factor using the equation Z′=1−[3(σc++σc−)/(μc+−μc−)]. […]
For orientation: Fluorescence polarisation rises when a labelled molecule tumbles more slowly, as on binding a larger partner.

Test [2] deals with caspase-3, caspase-8, caspase-9, caspase-2. Nature of the test: ApoAlert Caspase profiling plate, fluorescence-based. The class given is cell-based. As to the method: For apoptosis ELISA assay, 4−5×10^2 cells were seeded in 96-well plates and treated essentially as indicated in the MTT assay above. Untreated as well as treated cells were lysed, and levels of mono and oligo-nucleosomal DNA fragments in the lysates were determined by measuring optical density of each sample at 405 nm and 495 nm wavelengths. […] For TUNEL labeling, the cells were treated with various agents, fixed, labeled and photographed essentially as detailed in immuno-localization protocols described before (Zhang, L., Levi, E., Majumder, P., Yu, Y., Aboukameel, A., Du, J., Xu, H., Mohammad, R. M., Hatfield, J. S., Wali, A., Adsay, V., Majumdar, A. P. N., and Rishi, A. K. (2007) Mol. Cancer. Ther. 6(5), 1661-1672). […] Cell lysates derived from vehicle DMSO (Control) or CFM-4-treated cells were added to the wells that had immobilized fluorogenic caspase-3, caspase-8, caspase-9, or caspase-2 substrates. The fluorescence released from the activated caspase-dependent cleavage of respective substrate was detected by a plate reader at the excitation and emission wavelengths of 380 nm and 460 nm, respectively.

`Cc1cc(Br)cc2c1NC(=O)/C2=C1\SC(=S)NC1=O` [CFM-1, (Z)-5-(5-bromo-7-methyl-2-oxoindolin-3-ylidene)-2-thioxothiazolidin-4-one] yielded an IC50 in test [1] of 4100 nM.

As for `O=C1N(Cc2ccccc2Cl)c2ccccc2C12NN=C(c1ccccc1)S2` (stereo not drawn) [CFM-4, 1-(2-chlorobenzyl)-5′-phenyl-3′H-spiro[indoline-3,2′-[1,3,4]thiadiazol]-2-one], the IC50 in test [1] came to 750 nM. In addition, in test [2], the “activation of caspases (fluorescence-based quantitative assay)” value was “activation of caspases 3, 8, 9, and 2”.

The term IC50 denotes the concentration at which inhibition is half-maximal. Read a high IC50 as lower potency.
